Reference: US7998933B2, “Process for treating the skin comprising applying to the skin at least one composition comprising at least one N-aminoacylamide” (L'Oreal S.A., priority 2000, dated 2011)

Experiments:
[1] = biological target: T1, human leukocyte elastase (HLE) (Homo sapiens, UniProt P08246); assay: in vitro anti-elastase activity, substrate Me-OSAAPV-p-NA, spectrophotometry; format: biochemical
T1 sequence (P08246 30-267): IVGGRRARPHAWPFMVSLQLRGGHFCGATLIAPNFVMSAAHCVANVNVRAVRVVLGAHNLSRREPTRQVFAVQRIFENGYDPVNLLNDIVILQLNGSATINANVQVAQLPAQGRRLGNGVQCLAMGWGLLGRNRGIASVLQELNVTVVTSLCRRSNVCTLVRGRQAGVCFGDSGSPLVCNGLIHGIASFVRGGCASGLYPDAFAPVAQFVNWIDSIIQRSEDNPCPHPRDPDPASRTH
Procedure: The in vitro anti-elastase activity of compounds according to the invention with respect to human leukocyte elastase (HLE) was determined. […]
The percentage inhibition of the control elastase activity is then determined by spectrophotometry.

[2] = system: surviving human skin treated with human leukocyte elastase (HLE); assay: ex vivo activity on fresh sections of human skin treated with HLE for 2 hours, morphometric quantification of elastic fibres; format: cell-based; settings: 10 μg/ml HLE + 0.1% compound, 2 hours at 20° C.
Procedure: (§1) The ex vivo activity of the compound of Example 2 was evaluated on surviving human skin treated with human leukocyte elastase (HLE).
Fresh sections of human skin, obtained from 2 different donors, are treated for 2 hours at 20° C. with 20 μl of buffer solution (pH 7.4) optionally comprising 10 μg/ml of HLE and optionally 0.1% of the test compound, optionally predissolved in ethanol.
(§2) The elastic fibres are stained blue with (+)-catechin and morphometrically quantified by computer-assisted image analysis. The percentage of average dermal surface area occupied by the elastic fibres is thus evaluated.

[3] = system: surviving human skin treated with human leukocyte elastase (HLE); assay: ex vivo activity on human skin fragments kept alive in culture for 10 days with HLE, morphometric quantification of elastic fibres; format: cell-based; settings: three donors; 0.5 μg/ml HLE + 5 μl of 0.2% compound in ethanol every two days, 10 days at 37° C.; control 7.4%, HLE alone 5.1%
Procedure: as §1
(§3) Fragments of normal human skin obtained from three different donors are placed in inserts positioned in culture wells. Culture medium supplemented with antibiotics is placed in the bottom of the wells. A passage is carried out by slow diffusion between the two compartments by means of a porous membrane (pore size: 12 μm).
(§4) The culture medium is freshened every three days.
0.5 μg of HLE per ml of culture medium is optionally added to the skin fragments.
5 μl of the test compound, predissolved at a concentration of 0.2% by weight in ethanol, is also added every two days.
The skins are kept alive for 10 days at 37° C.
as §2

[4] = system: surviving human skin irradiated with UVA (8 J/cm^2); assay: activity on surviving human skin irradiated with UVA, morphometric analysis of elastic fibres and collagen; format: cell-based; settings: UVA 8 J/cm^2 once + 5 μl of 0.2% compound every two days, 7 days at 37° C.
Procedure: The activity of the compound of Example 2 on surviving human skin irradiated with UVA (8 J/cm^2) was evaluated.
as §3, with “four” for “three”
as §4
5 μl of the test compound, predissolved at a concentration of 0.2% in ethanol, is added to the skin fragments every two days.
The skins are kept alive for 7 days at 37° C.
The skins are irradiated once at 8 J/cm^2 (Vilbert-Lourmat RMX-3W lamp).
as §2

[5] = compound concentration 0.1%, HLE 40 milliunits per ml, 37° C., 60 minutes

`CCOC(=O)CNC(=O)C(C(C)C)N(Cc1ccccc1)C(=O)CP(=O)(OCC)OCC` (centres unmarked) [Compound B, ethyl [2-{benzyl((diethoxyphosphoryl)acetyl]amino}-3-methylbutyrylamino)acetate] was tested, and the “% inhibition of the control elastase activity” value (“% inhibition” below) [1, 5] was 17%.
With `CC(=O)N(Cc1ccccc1)C(C(=O)NCC(=O)O)C(C)C` (centres unmarked) [Compound C, [2-(acetylbenzylamino)-3-methylbutyrylamino]acetic acid] the “% inhibition” value [1, 5] was 20%.
`CCOC(=O)CNC(=O)C(C(C)C)N(Cc1ccccc1)C(C)=O` (centres unmarked) [Compound D, ethyl [2-(acetylbenzylamino)-3-methylbutyrylamino]acetate] was tested, and the “% inhibition” value [1, 5] was 13%.
In the case of `CC(=O)N(c1cccc(C(F)(F)F)c1)C(C(=O)NCC(=O)O)C(C)C` (centres unmarked) [Example 2, {2-[acetyl (3-trifluoromethylphenyl)amino]-3-methylbutyrylamino}acetic acid], the “inhibition of the elastase activity (in words)” value [1] is reported as “strong inhibition of the elastase activity, even in a small amount”, the “% inhibition” value [1, 5] is reported as 67% and the “% inhibition” value ([1]; concentration of compound A 0.01%) is reported as 53%. For the same compound, the “% inhibition” value ([1]; concentration of compound A 0.05%) was 50%, the “% inhibition” value ([1]; concentration of compound A 0.1% (concentration series)) was 68% and the “% inhibition” value ([1]; concentration of compound A 0.2%) was 68%. The “% of surface area occupied by the elastic fibres” value (“% of surface area occupied” below) ([2]; Skin 1, control 12.7%, HLE alone 4.85%) was 13.95%, the “% of surface area occupied” value ([2]; Skin 2, control 15.25%, HLE alone 6.85%) was 11.85% and the “% of surface area occupied” value [3] was 7.1%. For the same compound, the “Morphometric analysis of the elastic fibres (superficial dermis)” value ([4]; untreated 6.75%, UVA alone 3.9%) was 6.8% and the “Morphometric analysis of the collagen (superficial dermis)” value ([4]; untreated 87%, UVA alone 81%) was 92%.
